From patent US10077243B2, “Compounds for treating disorders mediated by metabotropic glutamate receptor 5, and methods of use thereof” (Sunovion Pharmaceuticals Inc., priority 2009, dated 2018)
Read-outs that look alike come from different tables or passages of the source.

Target: T1, human mGluR5 (Homo sapiens, UniProt P41594)
T1 construct: expressed in transfected cells; host or cells: HEK293 cells stably expressing rat GLAST (EAAT1), stably transfected with pcDNAzeo3.1 carrying synthetic human mGluR5 DNA; zeocin-selected single clones
T1 sequence (P41594 21-1212): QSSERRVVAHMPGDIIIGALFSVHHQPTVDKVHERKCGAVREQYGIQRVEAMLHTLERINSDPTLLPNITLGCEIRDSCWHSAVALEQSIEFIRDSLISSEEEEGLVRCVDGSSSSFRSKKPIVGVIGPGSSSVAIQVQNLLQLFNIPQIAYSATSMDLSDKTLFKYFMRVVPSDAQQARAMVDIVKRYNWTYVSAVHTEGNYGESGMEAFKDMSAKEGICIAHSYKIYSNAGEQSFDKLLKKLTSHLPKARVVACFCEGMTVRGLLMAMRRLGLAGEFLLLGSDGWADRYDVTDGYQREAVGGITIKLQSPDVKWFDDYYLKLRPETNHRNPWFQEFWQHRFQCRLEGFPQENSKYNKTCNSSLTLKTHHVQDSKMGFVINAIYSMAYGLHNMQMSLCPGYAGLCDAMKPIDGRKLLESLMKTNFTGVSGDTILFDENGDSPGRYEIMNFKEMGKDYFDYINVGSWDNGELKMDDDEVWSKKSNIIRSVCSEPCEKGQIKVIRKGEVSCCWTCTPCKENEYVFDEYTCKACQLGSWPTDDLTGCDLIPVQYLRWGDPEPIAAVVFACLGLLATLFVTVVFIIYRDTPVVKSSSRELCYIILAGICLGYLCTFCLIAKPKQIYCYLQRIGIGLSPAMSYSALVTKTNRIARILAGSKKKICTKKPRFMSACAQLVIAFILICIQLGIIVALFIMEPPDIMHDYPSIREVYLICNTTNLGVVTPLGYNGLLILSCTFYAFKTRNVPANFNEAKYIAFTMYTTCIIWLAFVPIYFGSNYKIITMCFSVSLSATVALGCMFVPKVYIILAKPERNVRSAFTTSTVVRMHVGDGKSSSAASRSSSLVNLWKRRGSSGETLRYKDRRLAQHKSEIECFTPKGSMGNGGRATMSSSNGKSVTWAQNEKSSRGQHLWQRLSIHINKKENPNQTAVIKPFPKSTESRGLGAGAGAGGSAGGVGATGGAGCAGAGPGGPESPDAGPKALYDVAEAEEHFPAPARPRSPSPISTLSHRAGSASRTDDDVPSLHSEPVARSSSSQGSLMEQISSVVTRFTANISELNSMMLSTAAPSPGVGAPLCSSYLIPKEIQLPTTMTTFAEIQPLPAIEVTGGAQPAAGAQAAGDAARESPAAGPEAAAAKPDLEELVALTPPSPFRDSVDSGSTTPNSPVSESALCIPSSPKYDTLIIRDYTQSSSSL
Test: In vitro cell-based FLIPR calcium assay for positive modulation of the activation of mGluR5 by glutamate (PAM EC50)
Details: FLIPR calcium signal, glutamate added at its EC20
Outline: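 HEK293/GLAST cells stably expressing mGluR5 were loaded with calcium-sensitive dye (25 °C, 45–60 min) in HBSS/20 mM HEPES. Test compounds were assayed in buffer containing glutamate at that day's EC20, with FLIPR fluorescence recorded. Controls contained 0.3% DMSO without compound.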

[1] = HEK293/GLAST cells expressing recombinant human mGluR5, read-out: mGluR5 PAM EC50

SMILES | EC50 [1] | EC50 (mGluR5 PAM EC50, HEK293/GLAST cells expressing recombinant human mGluR5)
Cc1cnc(C#Cc2ccc3c(=O)n4c(nc3c2)CCC(C)CC4)s1 (stereo not drawn) [Example 6.8, 8-methyl-3-((5-methylthiazol-2-yl)ethynyl)-7,8,9,10-tetrahydroazepino[2,1-b]quinazolin-12(6H)-one] | 10 to 30 nM | –
CC1CCc2nc3cc(C#Cc4ccccn4)ccc3c(=O)n2CC1 (stereo not drawn) [Example 6.9, 8-methyl-3-(pyridin-2-ylethynyl)-7,8,9,10-tetrahydroazepino[2,1-b]quinazolin-12(6H)-one] | < 10 nM | –
CCC1CCc2nc3cc(C#Cc4ccc(F)cc4)ccc3c(=O)n2CC1 (stereo not drawn) [Example 6.12, 8-ethyl-3-((4-fluorophenyl)ethynyl)-7,8,9,10-tetrahydroazepino[2,1-b]quinazolin-12(6H)-one] | < 10 nM | –
CCCC1CCc2nc3cc(C#Cc4ccc(F)cc4)ccc3c(=O)n2CC1 (stereo not drawn) [Example 6.13, 3-((4-fluorophenyl)ethynyl)-8-propyl-7,8,9,10-tetrahydroazepino[2,1-b]quinazolin-12(6H)-one] | 30 to 100 nM | –
O=C1CCc2nc3cc(C#Cc4cccc(F)c4)ccc3c(=O)n2CC1 [Example 6.14, 3-((3-fluorophenyl)ethynyl)-6,7,9,10-tetrahydroazepino[2,1-b]quinazoline-8,12-dione] | 10 to 30 nM | –
O=c1c2ccc(C#Cc3cccc(F)c3)cc2nc2n1CCC(O)CC2 (stereo not drawn) [Example 6.15, 3-((3-fluorophenyl)ethynyl)-8-hydroxy-7,8,9,10-tetrahydroazepino[2,1-b]quinazolin-12(6H)-one] | < 10 nM | –
O=c1c2ccc(C#Cc3ccccn3)cc2nc2n1CCC(O)CC2 (stereo not drawn) [Example 6.16, 8-hydroxy-3-(pyridin-2-ylethynyl)-7,8,9,10-tetrahydroazepino[2,1-b]quinazolin-12(6H)-one] | 30 to 100 nM | –
O=c1c2ccc(C#Cc3cccnc3)cc2nc2n1CCC(O)CC2 (stereo not drawn) [Example 6.17, 8-hydroxy-3-(pyridin-3-ylethynyl)-7,8,9,10-tetrahydroazepino[2,1-b]quinazolin-12(6H)-one] | 100 to 300 nM | –
COC1CCc2nc3cc(C#Cc4cccc(F)c4)ccc3c(=O)n2CC1 (stereo not drawn) [Example 6.18, 3-((3-fluorophenyl)ethynyl)-8-methoxy-7,8,9,10-tetrahydroazepino[2,1-b]quinazolin-12(6H)-one] | < 10 nM | –
C=C1CCc2nc3cc(C#Cc4cccc(F)c4)ccc3c(=O)n2CC1 [Example 6.22, 3-((3-fluorophenyl)ethynyl)-8-methylene-7,8,9,10-tetrahydroazepino[2,1-b]quinazolin-12(6H)-one] | < 10 nM | –
O=c1c2ccc(C#Cc3cccc(F)c3)cc2nc2n1CC/C(=N\O)CC2 [Example 6.23, 3-((3-fluorophenyl)ethynyl)-8-(hydroxyimino)-7,8,9,10-tetrahydroazepino[2,1-b]quinazolin-12(6H)-one] | 30 to 100 nM | –
COCC1CCc2nc3cc(C#Cc4cccc(F)c4)ccc3c(=O)n2CC1 (stereo not drawn) [Example 6.24, 3-((3-fluorophenyl)ethynyl)-8-(methoxymethyl)-7,8,9,10-tetrahydroazepino[2,1-b]quinazolin-12(6H)-one] | 10 to 30 nM | –
O=c1c2ccc(C#Cc3cccc(F)c3)cc2nc2n1CCC1(CCCO1)CC2 (stereo not drawn) [Example 6.26, 3-((3-fluorophenyl)ethynyl)-4′,5′,9,10-tetrahydro-3′H,6H-spiro[azepino[2,1-b]quinazoline-8,2′-furan]-12(7H)-one] | 10 to 30 nM | –
O=c1c2ccc(C#Cc3ccccn3)cc2nc2n1CCC1(CCCO1)CC2 (stereo not drawn) [Example 6.27, 3-(pyridin-2-ylethynyl)-4′,5′,9,10-tetrahydro-3′H,6H-spiro[azepino[2,1-b]quinazoline-8,2′-furan]-12(7H)-one] | 30 to 100 nM | –
CC(C)CC1CCCCc2nc3cc(C#Cc4ccc(F)cc4)ccc3c(=O)n21 (stereo not drawn) [Example 6.32, 3-((4-fluorophenyl)ethynyl)-10-isobutyl-7,8,9,10-tetrahydroazepino[2,1-b]quinazolin-12(6H)-one] | 100 to 300 nM | –
C=CCC1CCCCc2nc3cc(C#Cc4ccc(F)cc4)ccc3c(=O)n21 (stereo not drawn) [Example 6.33, 10-allyl-3-((4-fluorophenyl)ethynyl)-7,8,9,10-tetrahydroazepino[2,1-b]quinazolin-12(6H)-one] | 10 to 30 nM | –
O=c1c2ccc(C#Cc3cccc(F)c3)cc2nc2n1CCC1(CC2)OCCO1 [Example 6.34, 3-((3-fluorophenyl)ethynyl)-9,10-dihydro-6H-spiro[azepino[2,1-b]quinazoline-8,2′-[1,3]dioxolan]-12(7H)-one] | 10 to 30 nM | –
CC1CCCCn2c1nc1cc(C#Cc3ccccn3)ccc1c2=O (stereo not drawn) [Example 6.35, 6-methyl-3-(pyridin-2-ylethynyl)-7,8,9,10-tetrahydroazepino[2,1-b]quinazolin-12(6H)-one] | 10 to 30 nM | –
CC1CCCn2c(nc3cc(C#Cc4ccccn4)ccc3c2=O)C1 (stereo not drawn) [Example 6.36, 7-methyl-3-(pyridin-2-ylethynyl)-7,8,9,10-tetrahydroazepino[2,1-b]quinazolin-12(6H)-one] | 10 to 30 nM | –
CC1(C)CCCn2c(nc3cc(C#Cc4ccccn4)ccc3c2=O)C1 [Example 6.37, 7,7-dimethyl-3-(pyridin-2-ylethynyl)-7,8,9,10-tetrahydroazepino[2,1-b]quinazolin-12(6H)-one] | < 10 nM | –
O=c1c2ccc(C#Cc3ccccn3)cc2nc2n1CCC(C(F)(F)F)CC2 (stereo not drawn) [Example 6.38, 3-(pyridin-2-ylethynyl)-8-(trifluoromethyl)-7,8,9,10-tetrahydroazepino[2,1-b]quinazolin-12(6H)-one] | 30 to 100 nM | –
N#CC1CCc2nc3cc(C#Cc4ccccn4)ccc3c(=O)n2CC1 (stereo not drawn) [Example 6.39, 12-oxo-3-(pyridin-2-ylethynyl)-6,7,8,9,10,12-hexahydroazepino[2,1-b]quinazoline-8-carbonitrile] | 100 to 300 nM | –
CC1(C)CCc2nc3cc(C#Cc4ccccn4)ccc3c(=O)n2CC1 [Example 6.40, 8,8-dimethyl-3-(pyridin-2-ylethynyl)-7,8,9,10-tetrahydroazepino[2,1-b]quinazolin-12(6H)-one] | – | < 10 nM

SMILES | EC50 [1] | EC50 (mGluR5 PAM EC50, HEK293/GLAST cells expressing recombinant human mGluR5)
CC1CCCc2nc3cc(C#Cc4ccccn4)ccc3c(=O)n2C1 (stereo not drawn) [Example 6.42, 9-methyl-3-(pyridin-2-ylethynyl)-7,8,9,10-tetrahydroazepino[2,1-b]quinazolin-12(6H)-one] | < 10 nM | –
CC1(C)CCCc2nc3cc(C#Cc4ccccn4)ccc3c(=O)n2C1 [Example 6.43, 9,9-dimethyl-3-(pyridin-2-ylethynyl)-7,8,9,10-tetrahydroazepino[2,1-b]quinazolin-12(6H)-one] | 10 to 30 nM | –
CC1CCCCc2nc3cc(C#Cc4ccccn4)ccc3c(=O)n21 (stereo not drawn) [Example 6.44, 10-methyl-3-(pyridin-2-ylethynyl)-7,8,9,10-tetrahydroazepino[2,1-b]quinazolin-12(6H)-one] | < 10 nM | –
N#Cc1cccc(C#Cc2ccc3c(=O)n4c(nc3c2)CCCCC4)n1 [Example 6.45] | 10 to 30 nM | –
O=c1c2ccc(C#Cc3ccccn3)cc2nc2n1CCC(F)CC2 (stereo not drawn) [Example 6.46, 8-fluoro-3-(pyridin-2-ylethynyl)-7,8,9,10-tetrahydroazepino[2,1-b]quinazolin-12(6H)-one] | < 10 nM | –
CC1CCc2nc3cc(C#Cc4cccc(C#N)n4)ccc3c(=O)n2CC1 (stereo not drawn) [Example 6.47, 6-((8-methyl-12-oxo-6,7,8,9,10,12-hexahydroazepino[2,1-b]quinazolin-3-yl)ethynyl)picolinonitrile] | 30 to 100 nM | –
CC1(F)CCc2nc3cc(C#Cc4ccccn4)ccc3c(=O)n2CC1 (stereo not drawn) [Example 6.48, 8-fluoro-8-methyl-3-(pyridin-2-ylethynyl)-7,8,9,10-tetrahydroazepino[2,1-b]quinazolin-12(6H)-one] | < 10 nM | –
CC1(O)CCc2nc3cc(C#Cc4ccccn4)ccc3c(=O)n2CC1 (stereo not drawn) [Example 6.49, 8-hydroxy-8-methyl-3-(pyridin-2-ylethynyl)-7,8,9,10-tetrahydroazepino[2,1-b]quinazolin-12(6H)-one] | 100 to 300 nM | –
COC1(C)CCc2nc3cc(C#Cc4ccccn4)ccc3c(=O)n2CC1 (stereo not drawn) [Example 6.50, 8-methoxy-8-methyl-3-(pyridin-2-ylethynyl)-7,8,9,10-tetrahydroazepino[2,1-b]quinazolin-12(6H)-one] | 30 to 100 nM | –
O=c1c2ccc(C#Cc3ccccn3)cc2nc2n1CCC1(CC2)CC1 [Example 6.51, 3-(pyridin-2-ylethynyl)-9,10-dihydro-6H-spiro[azepino[2,1-b]quinazoline-8,1′-cyclopropan]-12(7H)-one] | < 10 nM | –
O=c1c2ccc(C#Cc3ccccc3)cc2nc2n1CCC1(CC2)OCCO1 [Example 7.1] | 10 to 30 nM | –
O=c1c2ccc(C#Cc3ccccc3F)cc2nc2n1CCC1(CC2)OCCO1 [Example 7.2] | 30 to 100 nM | –
O=c1c2ccc(C#Cc3ccc(F)cc3)cc2nc2n1CCC1(CC2)OCCO1 [Example 7.3] | 30 to 100 nM | –
O=c1c2ccc(C#Cc3ccc(F)c(F)c3)cc2nc2n1CCC1(CC2)OCCO1 [Example 7.5] | 100 to 300 nM | –
Cc1cc(F)ccc1C#Cc1ccc2c(=O)n3c(nc2c1)CCC1(CC3)OCCO1 [Example 7.6] | 300 to 1000 nM | –
O=c1c2ccc(C#Cc3cccc(Cl)c3)cc2nc2n1CCC1(CC2)OCCO1 [Example 7.8] | 300 to 1000 nM | –
O=c1c2ccc(C#Cc3ccc(Cl)cc3)cc2nc2n1CCC1(CC2)OCCO1 [Example 7.09] | 300 to 1000 nM | –
O=c1c2ccc(C#Cc3ccccn3)cc2nc2n1CCC1(CC2)OCCO1 [Example 7.10] | 30 to 100 nM | –
O=c1c2ccc(C#Cc3cccnc3)cc2nc2n1CCC1(CC2)OCCO1 [Example 7.11] | 300 to 1000 nM | –
O=c1c2ccc(C#Cc3ccncc3)cc2nc2n1CCC1(CC2)OCCO1 [Example 7.12] | 10 to 30 nM | –
O=c1c2ccc(C#Cc3ccc(F)cn3)cc2nc2n1CCC1(CC2)OCCO1 [Example 7.13] | 30 to 100 nM | –
O=c1c2ccc(C#Cc3cccnc3F)cc2nc2n1CCC1(CC2)OCCO1 [Example 7.14] | 100 to 300 nM | –
